From US12404304B1, “Telomerase reverse transcriptase (TERT) expression enhancing compounds and methods for using the same” (Sierra Sciences, LLC, priority 2007, dated 2025)

Tests used:
viable cells in culture = assay: Cell viability assay (CellTiter-Glo Luminescent Cell Viability Assay, ATP quantitation, percent of vehicle control)
[1] = system: human TERT expression (hTERT mRNA); assay: Quantitative real-time RT-PCR of hTERT mRNA expression (Ct, transcripts) in compound-treated cells; assay type: cell-based
In short: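 Read-out is cycle threshold, the cycle at which probe fluorescence released by Taq 5′-nuclease activity crosses a set level; Ct falls as hTERT mRNA rises. cDNA of treated and untreated cells was compared, with starting transcripts quantified against a known-cDNA standard curve.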

Row | SMILES | Average Cell Viability after 24 Hours (% DMSO) (viable cells in culture) | Average Number of hTERT Transcripts [1]
1 | CC(=O)C1=C(C)NC(SCC(=O)Nc2sc3c(c2C#N)CCCC3)=C(C#N)C1c1ccc(Cl)cc1 (stereo not drawn) [compound 1434] | 72.00 | 25.17
2 | COC(=O)CSc1nnc(-c2sc3cc(Cl)ccc3c2Cl)n1C [compound 1435] | 60.23 | 48.10
3 | O=C(Nc1ccccc1OC(F)F)C(c1ccccc1)c1ccccc1 [compound 1436] | 82.48 | 8.14
4 | COC(=O)COc1ccc(S(=O)(=O)N2CCCC2)cc1Cl [compound 1437] | 79.26 | 22.13
5 | O=C(CC(NC1CCCCC1)C(=O)O)Nc1cccc([N+](=O)[O-])c1 (stereo not drawn) [compound 1438] | 97.89 | 8.29
6 | CC(=O)c1ccc(NC(=S)Nc2ccc(Br)c(Cl)c2)cc1 [compound 1439] | 51.61 | 11.63
7 | COC(=O)c1sc(NC(=S)NCc2cccnc2)c(C(=O)OC)c1C [compound 1440] | 99.11 | 13.85
8 | CCOC(=O)N1CCN(C(=O)CCc2ccc(S(=O)(=O)NCCc3ccccc3)cc2)CC1 [compound 1441] | 101.03 | 5.06
9 | CCOc1ccc(NC(=O)Nc2cccc(C(C)=O)c2)c([N+](=O)[O-])c1 [compound 1442] | 84.87 | 7.65
10 | Cc1ccc2nc(-c3ccc(NC(=S)Nc4cccc([N+](=O)[O-])c4)cc3)sc2c1 [compound 1443] | 77.16 | 7.82
11 | CC(=O)Oc1ccc2c(=O)c(Oc3ccc4ccccc4c3)c(C(F)(F)F)oc2c1 [compound 1444] | 64.02 | 16.54
12 | CCOC(=O)C(=O)Nc1ccc(S(=O)(=O)N2CC(C)CC(C)C2)cc1 (stereo not drawn) [compound 1445] | 87.20 | 6.33
13 | CC(C)(C)C(=O)Nc1nc2c(Cl)c(Cl)ccc2s1 [compound 1446] | 65.61 | 46.62
14 | O=C(Cn1cnc2ccccc21)NCCCN1CCOCC1 [compound 1447] | 96.56 | 5.30
15 | FC(F)(F)c1cccc(NC(=S)Nc2ccc(Cc3ccncc3)cc2)c1 [compound 1449] | 53.58 | 48.57
16 | COc1cc(CNC2CCCC2)ccc1OCCO [compound 1450] | 96.61 | 8.24
17 | COc1cc(C)ccc1OC1CCNCC1 [compound 1451] | 96.84 | 5.80
18 | O=C(OCc1cc(=O)n2nc(C3CC3)sc2n1)c1ccc(NC(=O)c2ccco2)cc1 [compound 1452] | 81.09 | 7.45
19 | CC(C)(C)NC(=O)NCc1nnnn1-c1ccccc1 [compound 1453] | 97.19 | 11.03
20 | Cc1cccn2c(=O)cc(COc3ccc(NC(=O)c4cccs4)cc3)nc12 [compound 1454] | 97.09 | 3.99
21 | NNc1ncnc2sc3c(c12)CCCC3 [compound 1455] | 84.96 | 130.06
22 | Nc1c2ccccc2nc2ccccc12 [compound 1456] | 57.96 | 92.07
23 | O=C(CCc1ccccc1)NC(c1cccc([N+](=O)[O-])c1)c1c(O)ccc2ccccc12 (stereo not drawn) [compound 1458] | 62.79 | 10.26
24 | COC(=O)c1ccc(Cl)c2c1C1C=CCC1C(c1cccc(F)c1)N2 (stereo not drawn) [compound 1459] | 72.75 | 11.14
25 | Cc1cc(C)c2c3c1C1C=CCC1CN3C(C(=O)O)C1CC=CC21 (stereo not drawn) [compound 1460] | 89.11 | 46.47
26 | CC(=O)Oc1ccc(C2Nc3ccc4ccccc4c3C3C=CCC32)c(OC(C)=O)c1 (stereo not drawn) [compound 1461] | 55.44 | 29.65
27 | CC1=NN(c2ccc(C)c(C)c2)C(=O)/C1=C\NNC(=O)c1ccccc1 [compound 1464] | 67.60 | 18.97

Row | SMILES | Average Cell Viability after 24 Hours (% DMSO) (viable cells in culture) | Average Number of hTERT Transcripts [1]
28 | CC1=NN(c2ccccc2)C(=O)/C1=C\NNC(=O)c1ccccc1 [compound 1465] | 80.62 | 20.29
29 | Cc1cc(=O)c2c(=O)n(-c3nc4ccccc4s3)[nH]c2[nH]1 [compound 1466] | 75.47 | 97.31
30 | O=C(O)CCc1ccc(-c2ccc(Cl)cc2)o1 [compound 1467] | 79.50 | 108.02
31 | CC[C@@]1(C2O[C@@H](C3O[C@@](O)(CC)[C@H](C)C[C@@H]3C)C[C@@H]2C)CC[C@H]([C@]2(C)CCC3(C[C@H](O)[C@@H](C)[C@@H]([C@H](C)[C@@H](OC)[C@H](C)C(=O)O)O3)O2)O1 (stereo partly drawn) [compound 1469] | 60.18 | 59.72
32 | O=C(c1cnn2c(C(F)(F)F)cc(-c3ccco3)nc12)N1CCCCC1 [compound 1471] | 90.01 | 148.88
33 | CC(/C=C/C(=O)NO)=C\C(C)C(=O)c1ccc(N(C)C)cc1 (stereo not drawn) [compound 1472] | 82.14 | 76.60
34 | CC(/C=C/c1ccc(N(C)C)cc1)=N\NC(=N)SC1CC(=O)N(c2ccc(Cl)cc2)C1=O (stereo not drawn) [compound 1473] | 69.29 | 32.72
35 | c1ccc(-n2ncc3c2-c2[nH]c4ccccc4c2CC3)cc1 [compound 1474] | 80.47 | 17.37
36 | Clc1ccc(OCc2nn3c(Cc4ccccc4)nnc3s2)c(Cl)c1 [compound 1475] | 67.26 | 17.56
37 | c1ccc(-c2nc3cc(Oc4ccc5[nH]c(-c6ccccn6)nc5c4)ccc3[nH]2)nc1 [compound 1476] | 86.51 | 25.18
38 | Cc1ccc(OCC(=O)N/N=C/c2c(C)nn(-c3ccccc3)c2O)c(C)c1 [compound 1483] | 81.33 | 5.19
39 | CCCC1=NN(c2ccc(C(=O)OCC)cc2)C(=O)C1 [compound 1484] | 62.51 | 16.52
40 | Cc1cc(OCC(=O)N/N=C/c2c(C)nn(-c3ccccc3)c2O)ccc1Cl [compound 1485] | 112.70 | 48.25
41 | CCCc1cc(=O)n2ncc(-c3cccc(Br)c3)c2[nH]1 [compound 1486] | 73.20 | 51.80
42 | Cc1ccc(-c2cc(C(=O)NCCc3ccc(S(N)(=O)=O)cc3)no2)cc1 [compound 1487] | 95.31 | 1.93
43 | O=C(CSc1nnc(-c2ccncc2)o1)N1CCN(c2ccccc2F)CC1 [compound 1488] | 86.72 | 3.19
44 | NCc1ccc(CNC(=O)c2cc(-c3cccs3)on2)cc1 [compound 1489] | 107.24 | 3.77
45 | O=C(O)CCC(=O)Nc1nc(-c2ccccn2)cs1 [compound 1490] | 111.59 | 3.91
46 | O=C(NCCSCc1ccccc1)c1cc(-c2cccs2)on1 [compound 1491] | 102.96 | 5.09
47 | O=C(CNC(=O)c1cc(-c2cccs2)on1)c1ccccc1 [compound 1492] | 91.36 | 6.45
48 | O=C(CSc1nnc(-c2ccncc2)o1)NCc1ccccc1Br [compound 1493] | 100.09 | 6.84
49 | COc1ccc(CCNC(=O)c2cc(-c3cccs3)on2)cc1 [compound 1494] | 110.08 | 9.18
50 | Cc1ccc(-c2cc(C(=O)Nc3nc4ccc(S(C)(=O)=O)cc4s3)no2)cc1 [compound 1495] | 85.84 | 10.81
51 | O=C(Nc1nc(-c2ccccn2)cs1)c1ccc(-c2nc3ccccc3s2)s1 [compound 1496] | 12.76 | 11.43
52 | COc1cccc(CCNC(=O)c2cc(-c3cccs3)on2)c1 [compound 1497] | 92.73 | 14.74
53 | O=C(NCCc1c[nH]c2c(OCc3ccccc3)cccc12)c1cc(-c2cccs2)on1 [compound 1498] | 94.63 | 16.50
54 | O=C(NCc1nccs1)c1cc(-c2cccs2)on1 [compound 1499] | 119.54 | 17.01
